Data taken from article PMC8333425, “Discovery of a dual Ras and ARF6 inhibitor from a GPCR endocytosis screen” (Nature Communications, 2021).
Values joined by “and” are separate entries in the source; they are usually repeats but may differ in a detail not shown here. Identical values can stand only once.

Legend:
AT1R = assay: BRET recording of AT1R removal from the PM (AT1R-RlucII / rGFP-CAAX); format: cell-based, human; conditions: for AngII-promoted BRET, AT1R removal from the PM: Comp 21 50 μM, individual experiments
Method: HEK293SL cells were seeded at a density of 7.5 × 10^5 cells per 100-mm dish and 24 h later, transiently transfected as such. For receptor internalization experiments, cells were transfected with 0.12 μg AT1R-RlucII, B2R-RlucII, or β2AR-RlucII and 0.48 μg of either rGFP-CAAX (to assess removal from the PM) or rGFP-FYVE (to assess accumulation in the endosomes). For β-arrestin recruitment assays, cells were transfected with 0.48 μg of receptor-YFP along with 0.12 μg of β-arrestin-RlucII. For β-arrestin/AP-2 binding experiments, cells were transfected with 1 μg Flag-AT1R, 1 μg β2-Adaptin-YFP, and 0.12 μg β-arrestin2-RlucII. For G protein activation, cells were transfected with 3 μg of sp-Flag-AT1R along with either 4.5 μg of the Gαq-polycistronic BRET sensor or 0.24 μg of the Gαi3-RlucII and 0.6 μg of GFP10-Gγ2 and Gβ1 sensors or 0.12 μg PKN-RBD-RlucII and 0.48 μg of rGFP-CAAX. For PKC activation, cells were transfected with 3 μg of sp-Flag-AT1R and 0.18 μg of the PKC sensor. For GTPase activation experiments, cells were transfected with 1 μg Flag-AT1R, 0.48 μg of rGFP-CAAX, and either 0.12 μg of GGA3-PBD-RlucII, PAK-CRIB-RlucII or Raf-RBD-RlucII. For biosensor validation experiments, cells were additionally transfected with 500 ng Flag-K-Ras-WT, Flag-K-Ras-G12V, Flag-K-Ras-SOS-CAAX, HA-ARF6-WT, HA-ARF6-T27N, Myc-Rac1-WT, Myc-Rac1-Q61L or Myc-Rac1-T17N. For PI3K/Akt activation experiments, cells were transfected with 0.48 μg of rGFP-CAAX and 0.12 μg of Akt (PH)-RlucII. After 18 h of transfection, the media was replaced and cells were divided for subsequent experiments. Cells were detached and seeded onto poly-L-ornithine-coated 96-well flat white bottom plates (BrandTech Scientific) at a density of 2.5 × 10^4 cells per well in media. The next day, cells were washed once with Tyrode’s buffer (140 mM NaCl, 2.7 mM KCl, 1 mM CaCl2, 12 mM NaHCO3, 5.6 mM D-glucose, 0.5 mM MgCl2, 0.37 mM NaH2PO4, 25 mM HEPES, pH 7.4) and left in Tyrode’s buffer. For kinetics of β-arrestin recruitment or β-arrestin binding to receptor and AP-2 experiments, cells were serum starved for 30 min, pretreated with 21 (50 µM) or Barbadin (100 µM) for 30 min, stimulated with 100 nM AngII or 1 µM BK and BRET signals were monitored at indicated times using a Victor X Light plate reader (PerkinElmer). Coelenterazine H (final concentration of 5 µM) was added 3–5 min prior to BRET measurements. Filter set was 460/80 nm and 535/30 nm for detecting the RlucII Renilla luciferase (donor) and YFP (acceptor) light emissions, respectively. The BRET ratio was determined by calculating the ratio of the light emitted by YFP over the light emitted by the RlucII. For G protein activation, cells were serum starved, pretreated with compounds for 30 min, stimulated with 100 nM AngII for 2 min (Gαq, Gαi3, and Rho sensors) or 5 min (PKC sensor). For the kinetics of GTPase and PI3K/Akt activation, cells were serum starved, pretreated with 21 (50 µM) or Wortmannin (200 nM) for 30 min, stimulated with ligand (100 nM AngII or 100 ng/ml EGF) and BRET signals were monitored at indicated times. […] BRET signals were monitored using a Synergy2 (BioTek) microplate reader and coelenterazine 400a (final concentrations of 5 µM) added 3–5 min prior to BRET measurements. […] The BRET ratio was determined by calculating the ratio of the light emitted by rGFP/GFP10 over the light emitted by the RlucII.

PKC = PKC BRET sensor, AT1R-mediated; format: cell-based, human
Method: HEK293SL cells were seeded at a density of 7.5 × 10^5 cells per 100-mm dish and 24 h later, transiently transfected as such. For receptor internalization experiments, cells were transfected with 0.12 μg AT1R-RlucII, B2R-RlucII, or β2AR-RlucII and 0.48 μg of either rGFP-CAAX (to assess removal from the PM) or rGFP-FYVE (to assess accumulation in the endosomes). For β-arrestin recruitment assays, cells were transfected with 0.48 μg of receptor-YFP along with 0.12 μg of β-arrestin-RlucII. For β-arrestin/AP-2 binding experiments, cells were transfected with 1 μg Flag-AT1R, 1 μg β2-Adaptin-YFP, and 0.12 μg β-arrestin2-RlucII. […] For kinetics of β-arrestin recruitment or β-arrestin binding to receptor and AP-2 experiments, cells were serum starved for 30 min, pretreated with 21 (50 µM) or Barbadin (100 µM) for 30 min, stimulated with 100 nM AngII or 1 µM BK and BRET signals were monitored at indicated times using a Victor X Light plate reader (PerkinElmer). […] The BRET ratio was determined by calculating the ratio of the light emitted by YFP over the light emitted by the RlucII. […] For the kinetics of GTPase and PI3K/Akt activation, cells were serum starved, pretreated with 21 (50 µM) or Wortmannin (200 nM) for 30 min, stimulated with ligand (100 nM AngII or 100 ng/ml EGF) and BRET signals were monitored at indicated times. […]

CC(C)C(=O)N1CCN(c2ccc(NC(=O)c3cc4ccccc4o3)cc2Cl)CC1 [Compound 21]
AngII-bound AT1R removal from the PM (AT1R; 50 μM): slowed down and decreased the extent of AngII-bound AT1R removal from the PM | AngII-promoted BRET, AT1R removal from the PM (AT1R; time 0 min): 0 | AngII-promoted BRET, AT1R removal from the PM (AT1R; time 5 min): -0.084 and -0.3663 and -0.1717 and -0.07933 | AngII-promoted BRET, AT1R removal from the PM (AT1R; time 15 min): -0.132 and -0.4823 and -0.452 and -0.243 | AngII-promoted BRET, AT1R removal from the PM (AT1R; time 30 min): -0.166 and -0.515 and -0.398 and -0.3753 | AT1R-mediated PKC activation (PKC; 50 μM): did not inhibit AT1R-mediated PKC activation | PKC BRET sensor signal (S_Fig.4b), single experiments (PKC; listed as Comp 21): 0.07767 and 0.069 and 0.0815
